The values below come from patent US9513299B2, “Methods for the detection and diagnosis of malaria using an electrochemical sensor” (EMPIRE TECHNOLOGY DEVELOPMENT LLC, priority 2010, dated 2016).

Entries after “also recorded” stand apart in the source; their conditions may differ.

What all share (assay type): biochemical
Experiment [1] has as its target T1, hemoglobin samples from malaria patients (Malaria-Infected HbA0) (Homo sapiens, UniProt P68871+P69905).
T1 construct: Hemoglobin from whole blood of test subjects is immobilized to the surface of electrodes; from tissue; host or cells: whole blood of malaria patients
Kind of experiment: Electrocatalytic activity of immobilized hemoglobin from whole blood in the presence of allosteric modulators (Example 4). To be noted: change after adding modulator; IHP 150 μM, 2,3-DPG 2 mM; 85 mM H2O2. Here is the method:
(§1) The assay of this example is illustrated in FIG. 8. Hemoglobin from whole blood of test subjects is immobilized to the surface of electrodes in two separate reaction cells as described in Example 1. Hydrogen peroxide at a final concentration of 85 mM is added in PBS to monitor the electrocatalytic activity for the immobilized protein. All the experiments are performed with the setup described above. The potential is repetitively cycled (3 scans) from −0.5 to 0.5 V vs. Ag/AgCl at a scan rate of 100 mV s^−1. This device is linked to a computer to record the current.
(§2) Next, inositol hexaphosphate (IHP) is added to one of the reaction cells at a final concentration of 150 μM. IHP is used to shift the tetramer/dimer equilibrium completely towards dimer. The effects are visualized through electrochemical measurements when the potential is repetitively cycled (3 scans) from −0.5 to 0.5 V vs. Ag/AgCl at a scan rate of 100 mV s^−1.
(§3) 2,3 diphosphoglycerate (2,3-DPG) is added to the second reaction cell at a final concentration of 2 mM. The stabilization of the immobilized HbA0 by 2,3-DPG, will result in higher electrocatalytic activity than normal due to the presence of more tetrameric protein molecules.

Experiment [2] deals with T2, hemoglobin samples from healthy subjects (Homo sapiens, UniProt P68871+P69905).
T2 construct: Hemoglobin from whole blood of test subjects is immobilized to the surface of electrodes; from tissue; host or cells: whole blood of healthy subjects
T2 sequence (P69905 2-142 limits assumed): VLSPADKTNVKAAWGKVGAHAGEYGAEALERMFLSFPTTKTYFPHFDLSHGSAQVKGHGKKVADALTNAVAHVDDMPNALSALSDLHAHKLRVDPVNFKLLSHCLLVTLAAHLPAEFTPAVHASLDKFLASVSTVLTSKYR
T2 sequence (P68871 2-147 limits assumed): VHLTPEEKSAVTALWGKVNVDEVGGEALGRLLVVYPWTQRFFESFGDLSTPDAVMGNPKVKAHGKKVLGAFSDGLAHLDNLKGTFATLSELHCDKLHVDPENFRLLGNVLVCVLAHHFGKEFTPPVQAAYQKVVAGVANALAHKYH
The description is as above. To be noted: after addition of IHP 150 μM or 2,3-DPG 2 mM; 85 mM H2O2. As to the method:
as §1, §2, §3

Another experiment concerns the target T3, human hemoglobin (HbA0) (Homo sapiens, UniProt P68871+P69905).
T3 construct: purchased Sigma chemicals H-267
Briefly: Peroxidase (electrocatalytic) activity of hemoglobin immobilized on nickel coated electrode, cyclic voltammetry with H2O2. To be noted: for peroxidase activity of immobilized HbA0: IHP 150 μM or 2,3-DPG 2 mM, versus hemoglobin control (FIG. 5); for peroxidase activity of immobilized HbA0 / Electrocatalytic Activity in Healthy HbA0: 85 mM H2O2; for Electrocatalytic Activity in Healthy HbA0: change after adding modulator, IHP 150 μM, 2,3-DPG 2 mM. As to the method:
Crystal ferrous human hemoglobin (HbA0) was obtained from Sigma chemicals (H-267). The stock solution was prepared by dissolving 5 mg HbA0 in one milliliter of 0.05 M phosphate buffered saline (pH 7.2) (Sigma chemicals).
For the electrochemical experiments we used a computer controlled Autolab (PGSTAT) modular electrochemical system (Eco Chemie Ultecht, The Netherlands) that was operated with GPES software (Eco Chemie). All experiments were performed in a conventional three-electrode system cell with an Ag/AgCl reference electrode (BAST), a Pt wire as counter electrode, and a nickel coated chip as working electrode at ambient room temperature (21° C.).
Cyclic voltammetry was used for the immobilization of hemoglobin onto nickel coated electrodes following a similar approach as Salimi et al. To immobilize hemoglobin on the electrode surface, the electrodes were immersed in fresh 0.05 M phosphate buffer solution (pH 7.2) containing 5 mg ml-1 hemoglobin and the potential was repetitively cycled (30 scans) from 1 to −0.5 V vs. Ag/AgCI at a scan rate of 100 mV s^−1. After immobilization, the chips were washed thoroughly with phosphate buffer and subsequently subjected to cyclovoltammetric measurements in the presence of 0-8 M urea.
After hemoglobin immobilization the chips were incubated in presence of 0-8 M urea for 30 min. Hydrogen peroxide (85 mM) was added to monitor the peroxidase activity change for the unfolded protein. All the experiments were performed with the setup described for electrochemical measurements. The potential was repetitively cycled (3 scans) from −0.5 to 0.5 V vs. Ag/AgCI at a scan rate of 100 mV s^−1. In a control experiment the same electrochemical measurements were performed on a reference chip without immobilized hemoglobin.
In a control experiment, after the immobilization of hemoglobin on the chip, the tetramer dimer equilibrium was shifted towards dimer by inositol hexaphosphate at a final concentration of 150 μM and electrochemical measurements were performed. The potential was repetitively cycled (3 scans) from −0.5 to 0.5 V vs. Ag/AgCI at a scan rate of 100 mV s^−1 as described before. The peroxidase activity of hemoglobin was also measured under this condition by adding 85 mM hydrogen peroxide. In another control experiment, the same electrochemical and peroxidase activity measurements were performed on immobilized hemoglobin in presence of the tetramer stabilizer 2,3-DPG at a final concentration of 2 mM.

T3 sequence (P69905 2-142 limits assumed): as the sequence (P69905 2-142 limits assumed) above
T3 sequence (P68871 2-147 limits assumed): as the sequence (P68871 2-147 limits assumed) above
T1 sequence (P69905 2-142): as the sequence (P69905 2-142 limits assumed) above
T1 sequence (P68871 2-147): as the sequence (P68871 2-147 limits assumed) above

As for `O=P(O)(O)O[C@H]1[C@H](OP(=O)(O)O)[C@@H](OP(=O)(O)O)[C@H](OP(=O)(O)O)[C@@H](OP(=O)(O)O)[C@H]1OP(=O)(O)O` [IHP, inositol hexaphosphate], the “Electrocatalytic Activity in Malaria-Infected HbA0” value in experiment [1] is given as “not be a significant change; also recorded: No change”. Also, the “current measured at the electrode surface, hemoglobin samples from healthy subjects” value in experiment [2] is given as “decrease”. Also, at human hemoglobin (HbA0), the “peroxidase activity of immobilized HbA0” value is on record as “decrease” and the “Electrocatalytic Activity in Healthy HbA0” value is recorded as “Decrease”.
Regarding `O=C(O)C(COP(=O)(O)O)OP(=O)(O)O` (stereo not drawn) [2,3-DPG, 2,3-diphosphoglycerate], the “Electrocatalytic Activity in Malaria-Infected HbA0” value in experiment [1] is given as “not be a significant change; also recorded: No change”. In addition, the “current measured at the electrode surface, hemoglobin samples from healthy subjects” value in experiment [2] is “increase”. Further, on human hemoglobin (HbA0), the “peroxidase activity of immobilized HbA0” value is “increased” and the “Electrocatalytic Activity in Healthy HbA0” value was “Increase”.
On to `NC(N)=O` [urea], for which the “electrochemical current (peroxidase activity of hemoglobin immobilized chip)” value on human hemoglobin (HbA0) (0-8 M urea, 30 min incubation, 85 mM H2O2 (FIG. 4)) is listed as “decrease”.
